Reference: patent US20240415793A1, “Neuroprotective composition comprising pyruvate and citrate” (N.V. Nutricia, priority 2022, published 2024)

How the values were obtained:
[1] = tested on: primary rat neuronal-glial cell cultures; assay: Seahorse assay (OCR/ECAR), acute 1 h nutrient pre-incubation, resting or seizure-like conditions; format: cell-based; conditions: 1 mM citrate
Procedure: A Seahorse assay was performed on primary rat neuronal-glial cell cultures to determine the impact of pyruvate and citric acid on glycolytic rates and lactate delivery, mitochondrial respiration and total (glycolytic and mitochondrial) ATP production.
Rat cortical cells were isolated from embryonic day 18 embryos using a combination of enzymatic and mechanical dissociation of brain cortical rat tissue. Immediately after dissociation, the cells were seeded at a density of 500′000 cells per mL in 96-well plates and grown at 37° C. for two weeks from day in vitro (DIV) 0 until DIV14 in Neurobasal medium supplemented with 2% (v/v) B27, 0.8 mM Magnesium (Mg2+), 25 mM glucose and 1% (v/v) Penicillin/Streptomycin. During this time neuronal axons grew out and formed synaptic contacts. In addition, glial cells, foremost astrocytes, grew and formed contacts with neurons. The incubation in 25 mM glucose accelerated the differentiation and network growth of neurons.
From DIV14 until DIV17, the cells were incubated in Neurobasal medium supplemented with 2% (v/v) B27, 0.8 mM Mg2+, 5 mM glucose and 1% (v/v) Penicillin/Streptomycin. The switch from high to low glucose was done to approach the low intracerebral glucose concentration of the human brain and create a more physiological metabolic environment.
The switch from 5 mM to 1 mM glucose matched the glucose concentrations in the human brain. Meanwhile the switch from high (0.8 mM) to low (0.1 mM) Mg^2+ increases the electrical firing frequency of neurons because Mg2+ is an inhibitor of excitatory NMDA-type ionotropic glutamate receptors, which account for most of the neuronal firing in this cell culture model. The increase in neuronal firing caused by incubation in 0.1 mM Mg^2+ increases the energy production of neurons and glial cells as reflected in the increase in basal respiration (FIG. 1B and E). After 1 hour of pre-incubation in the Seahorse medium containing the nutrients, the oxygen consumption rate [OCRs] and extracellular acidification rate [ECARs] of the neuroglial culture were measured in the Seahorse assay.
(§1) The oxygen consumption rates (OCRs) and extracellular acidification rates (ECARs) of cells seeded in 96-well plates were monitored in real time at 37° C. in unbuffered Hanks Balanced Salt Solution (HBSS). The OCRs represent foremost mitochondrial respiration, and to a minor extent non-mitochondrial respiration. The ECARs relate foremost to the acidification of the medium with lactate produced through glycolysis and secreted by the cells into the medium (Table 1).
(§2) During the Seahorse run, both the OCRs and ECARs were measured simultaneously at baseline and following the injection of compounds by the Seahorse instrument (Table 1). HBSS was supplemented with glucose from the start and no glucose was injected through the Seahorse instruments. Measurements were repeated three times at baseline and three times after each compound injection.
(§3) After the initial baseline measurement, oligomycin (OM) was injected. OM blocks mitochondrial ATP synthase (complex V) and therefore decreases mitochondrial respiration. The OCRs after OM injection are due to the mitochondrial proton leak. They enable to determine whether the test nutrients impact the proton leak. The difference in OCRs at baseline and after OM injection is the amount of oxygen used for mitochondrial ATP synthesis at baseline. From this difference in OCR, the mitochondrial ATP production rates are calculated.
After OM, uncoupling agent carbonyl cyanide-p- trifluoromethoxyphenyl-hydrazon [FCCP] was injected which collapses the proton gradient across the inner mitochondrial membrane established during respiration and required for ATP synthesis. The cells attempt to restore the proton gradient following FCCP injection by maximizing respiration. […]

neuroglial cell cultures = assay: Seahorse assay (OCR/ECAR), 24-hour incubation with citrate under resting conditions; format: cell-based, rat; conditions: 0.8 mM Mg2+, vs control medium; for increase in basal glycolytic rates: FIG. 5A; for increase in OM-induced increase in glycolytic rates: FIG. 5B; for increase in FCCP-induced maximal glycolytic capacity: FIG. 5C
Procedure: as §1, §2, §3
After OM, uncoupling agent carbonyl cyanide-p- trifluoromethoxyphenyl-hydrazon [FCCP] was injected which collapses the proton gradient across the inner mitochondrial membrane established during respiration and required for ATP synthesis. The cells attempt to restore the proton gradient following FCCP injection by maximizing respiration. The OCRs measured after FCCP injection therefore represent the maximal respiratory capacity of the mitochondria in the sample and enable to determine whether test nutrients impact the maximal respiratory capacity of the mitochondria.
Finally, Antimycin A, a complex III inhibitor, and Rotenone, a complex I inhibitor, were co-injected, both blocking the respiratory chain at different sites to entirely shut down mitochondrial respiration and determine the non-mitochondrial respiration. The latter is necessary to correct all OCRs and obtain the mitochondrial OCRs.
The ECARs were measured simultaneously at baseline and after OM and FCCP injection. The glycolytic ATP production was calculated from the baseline ECARs. The subsequent injection of OM pushed the cells to maximize their glycolytic ATP production to compensate for the loss in mitochondrial ATP production inflicted by OM. The further addition of FCCP drove mitochondrial respiration to a maximum and this eventually led to a further increase in glycolytic rates providing pyruvate into the TCA cycle to sustain maximal respiration. Therefore, the ECARs after FCCP injection were used to determine the maximum glycolytic capacity of the cells.
Further, the effects of a 24-hour incubation with citrate on glycolysis, mitochondrial respiration and total (glycolytic and mitochondrial) energy (ATP) production under resting conditions was assessed. Neuroglial cell cultures were grown in Neurobasal medium (NBM) supplemented with B27, high (25 mM) glucose, and high (0.8 mM) Mg2+ from DIV0 until DIV14. They were switched to NBM supplemented with B27, low (5 mM) glucose, and high (0.8 mM) Mg^2+ from DIV14 until DIV16. On DIV16, the medium was exchanged for DMEM (which is, in contrast to HBSS, not a nutrient-deprived medium) containing low (5 mM) glucose, high (0.8 mM) Mg^2+ and 500 μM or 1 mM citrate. On DIV17, one hour prior to the Seahorse run, the medium was replaced with unbuffered DMEM containing low (5 mM) glucose, high (0.8 mM) Mg^2+ and 500 μM or 1 mM citrate. The cells were left in this medium until the end of the run. Five repeats per condition were done.

## O=C(O)CC(O)(CC(=O)O)C(=O)O [citrate]
[1]; 0.1 mM Mg2+ control medium, FIG. 3A
  increase in total (mitochondrial and glycolytic) ATP production: ~60%
[1]; 0.1 mM Mg2+ control medium, FIG. 3B
  increase in basal mitochondrial respiration: ~40%
[1]; 0.1 mM Mg2+ medium, FIG. 3C
  increase in basal glycolytic rates: ~20%
Neuroglial cell cultures; 500 μM and 1 mM citrate, FIG. 4B
  increase in basal mitochondrial respiration: ~60%
Neuroglial cell cultures; 500 μM and 1 mM citrate, FIG. 4C
  increase in FCCP-induced maximal mitochondrial respiratory capacity: 60-70%
Neuroglial cell cultures; 500 μM and 1 mM citrate, DMEM 5 mM glucose, FIG. 4A
  increase in basal mitochondrial and glycolytic ATP production: ~45%
Neuroglial cell cultures; 500 μM citrate
  increase in basal glycolytic rates: ~45%
  increase in OM-induced increase in glycolytic rates: ~70%
  increase in FCCP-induced maximal glycolytic capacity: ~75%
Neuroglial cell cultures; 1 mM citrate
  increase in basal glycolytic rates: ~20%
  increase in OM-induced increase in glycolytic rates: ~30%
  increase in FCCP-induced maximal glycolytic capacity: ~50%
